Test results: patent JP2023117892A, “ヘプシジン結合ペプチド” (Public Interest Inc Foundation Oyokyo, priority 2022, dated 2023)
One block for each molecule: values may come before it. Positions of bridges follow the written chain, without caps; N, C: chain ends. Residues, ends and D or L forms follow the SMILES beside them. No end group written: not given here.

What was measured:
[1] = test system: C57/BL6 mice (マウス(C57/BL6)); assay: Serum iron in mice given hepcidin; type: in vivo, mouse; settings: Fig. 7C
[2] = biological target: T1, hepcidin (ヘプシジン) (Homo sapiens, UniProt P81172); assay: Bio-layer interferometry (BLI) of the peptide on biotinylated hepcidin (Octet K2); type: binding; set-up: ビオチン化ヘプシジン(Bachem社製); purchased Bachem; settings: peptide 2.5, 4, 6, 8 or 10 μM
T1 sequence (P81172 60-84 limits assumed): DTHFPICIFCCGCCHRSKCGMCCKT

[3] = test system: human ferroportin fused to EGFP (FPN-EGFP) (ヒトのフェロポーチン(FPN)にEGFPを融合させたタンパク質); assay: Western blot of ferroportin (FPN-EGFP) in HEK293 cells treated with hepcidin; type: cell-based; settings: HEK293 expressing FPN-EGFP
[4] = test system: HepG2 cells, human liver cancer-derived (ヒト肝癌由来細胞HepG2); assay: Intracellular iron (ferritin ELISA) in HepG2 cells treated with hepcidin; type: cell-based; settings: Fig. 7A
[5] = test system: COS-1 cells, monkey kidney-derived fibroblasts (サル腎臓由来線維芽細胞(COS-1)); assay: Intracellular iron (ferritin ELISA) in FPN-EGFP-expressing COS-1 cells treated with hepcidin; type: cell-based; settings: COS-1 expressing FPN-EGFP, Fig. 7B
[6] = test system: renal anemia model mice (腎性貧血モデルマウス); assay: Effect of HBP in renal anemia model mice (adenine sulfate-induced renal failure); type: in vivo, mouse
[7] = biological target: T1, hepcidin (ヘプシジン); assay: Phage display screening (Ph.D-12 library) on hepcidin-immobilised beads; type: binding; set-up: ビオチン化ヘプシジン(Bachem社製); purchased Bachem; settings: displayed on M13 phage pIII; most frequent sequence among 64 plaques after the 5th panning
[8] = biological target: T1, hepcidin (ヘプシジン); assay: Binding of the 12-amino-acid peptide to hepcidin, linear versus cyclised
[9] = peptide added simultaneously with hepcidin
[10] = AdS-induced renal anemia mice, HBP day 15 to day 21 (7 times), blood on day 22, versus control (PBS), Fig. 4C-E

Kd ([2]; biotinylated hepcidin on streptavidin sensor chip, read-out: dissociation constant): 29 nM
specific binding to hepcidin ([2]; Fig. 3): ヘプシジンに特異的に結合することが確認された
Molecule: CSCC[C@@H]1NC(=O)[C@H](CO)NC(=O)[C@@H]2CCCN2C(=O)[C@H](Cc2c[nH]c3ccccc23)NC(=O)[C@H](CCSC)NC(=O)[C@H](CC(=O)O)NC(=O)[C@H](Cc2c[nH]c3ccccc23)NC(=O)[C@H](CO)NC(=O)[C@@H](NC(=O)[C@H](C)NC(C)=O)CSSC[C@@H](C(=O)NCC(N)=O)NC(=O)CNC(=O)[C@H](CCC(=O)O)NC(=O)[C@H](C)NC(=O)[C@H](CCCCN)NC(=O)[C@H](Cc2c[nH]c3ccccc23)NC(=O)[C@H](CC(=O)O)NC1=O [HBP, ACSWDMWPSMDWKAEGCG] (Ac-ACSWDMWPSMDWKAEGCG-NH2; disulfide 2-17)
serum iron ([1]; peptide given simultaneously with hepcidin): 血中鉄量の減少が抑制された
amount of ferroportin (FPN-EGFP) ([3]; peptide added simultaneously with human hepcidin, Fig. 6 lanes 4 and 5): FPN-EGFP量の低下が抑制された
intracellular iron (as ferritin) [4, 9]: 細胞内鉄量の増加が抑制された
intracellular iron (as ferritin) [5, 9]: 細胞内鉄量の増加が抑制された
hematocrit (HCt) [6, 10]: 有意に上昇した
hemoglobin (Hb) [6, 10]: 有意に上昇した
red blood cell count (RBC) [6, 10]: 有意に上昇した
blood biochemistry showing improvement of anemia and renal failure ([6]; AdS-induced renal failure mice, HBP day 15 to day 21, day 22, BUN, CRE, serum iron, TSAT, ferritin, CRP, hepcidin, EPO, Fig. 5A-H): 貧血の改善及び腎不全の改善を示す結果が確認された

Molecule: WDMWPSMDWKAE
possibility of specific binding to hepcidin [7]: ヘプシジンに特異的に結合する可能性が示された
binding to hepcidin ([8]; cyclised form): ヘプシジンに特異的に結合する
binding to hepcidin ([8]; linear form): 線状ではヘプシジンに結合しない

Molecule: ヘプシジン: human hepcidin (Peptide Institute, Inc.) (DTHFPICIFCCGCCHRSKCGMCCKT; ends and bridges not checked; cysteine pairing not given here; UniProt P81172 60-84, looked up) [reference compound]
serum iron ([1]; hepcidin alone): 血中の鉄量は減少した
amount of ferroportin (FPN-EGFP) ([3]; hepcidin added alone, Fig. 6 lane 3): フェロポーチンの量(FPN-EGFP量)は低下した
intracellular iron (as ferritin) ([4]; hepcidin alone): 細胞内の鉄量は増加した
intracellular iron (as ferritin) ([5]; hepcidin alone): 細胞内の鉄量は増加した
